What follows are compounds tested on HepG2 (assay: Hepatoprotective activity against aflatoxin B1 (10e-5 M) induced Hep G2 cells at a dose of 10 ug/ml).
Type: functional, Homo sapiens
CO[C@H]1[C@@H](O)[C@]2(C)CC[C@]3(C)C(=CCC4[C@@]5(C)CC[C@H](O)[C@](C)(CO)C5CC[C@]43C)[C@@H]2CC1(C)C (stereo partly drawn) was tested, and the Protection was 8%. In the case of CC1(C)C[C@H]2C3=CC[C@@H]4[C@@]5(C)CC[C@H](O)[C@](C)(CO)[C@@H]5CC[C@@]4(C)[C@]3(C)CC[C@@]2(C)[C@@H](O)[C@@H]1O, the Protection is reported as 0%. CC1(C)C[C@H]2C3=CC[C@@H]4[C@@]5(C)CC[C@H](O)[C@](C)(CO)[C@@H]5CC[C@@]4(C)[C@]3(C)CC[C@@]2(C)[C@H](O)[C@@H]1O [SOYASAPOGENOL A] was tested, and the Protection was 0%. CC1(C)C[C@H]2C3=CCC4[C@@]5(C)CC[C@H](O)[C@](C)(CO)C5CC[C@@]4(C)[C@]3(C)CC[C@@]2(C)C[C@H]1O (stereo partly drawn) gave a Protection of 0%. CC1(C)C[C@H]2C3=CCC4[C@@]5(C)CC[C@H](O)[C@](C)(CO)C5CC[C@@]4(C)[C@]3(C)CC[C@@]2(C)CC1=O (stereo partly drawn) showed a Protection of 37%. With CC1(C)C[C@@H](O)[C@]2(C)CC[C@]3(C)C(=CCC4[C@@]5(C)CC[C@H](O)[C@](C)(CO)C5CC[C@]43C)[C@@H]2C1 (stereo partly drawn) the Protection was 14%. Work on COC[C@]1(C)C2CC[C@]3(C)C(CC=C4[C@@H]5CC(C)(C)[C@@H](O)[C@@H](O)[C@]5(C)CC[C@]43C)[C@@]2(C)CC[C@@H]1OC (stereo partly drawn) yielded a Protection of 7%. Work on CC1(C)C[C@H]2C3=CCC4[C@@]5(C)CC[C@H](O)[C@](C)(CO)C5CC[C@@]4(C)[C@]3(C)CC[C@@]2(C)C[C@@H]1O (stereo partly drawn) yielded a Protection of 25%. With CO[C@@H]1[C@H](OC)C(C)(C)C[C@H]2C3=CCC4[C@@]5(C)CC[C@H](O)[C@](C)(CO)C5CC[C@@]4(C)[C@]3(C)CC[C@@]12C (stereo partly drawn) the Protection was 0%. CC(=O)O[C@@H]1[C@H](OC(C)=O)C(C)(C)C[C@H]2C3=CCC4[C@@]5(C)CC[C@H](O)[C@](C)(CO)C5CC[C@@]4(C)[C@]3(C)CC[C@@]12C (stereo partly drawn) showed a Protection of 0%. CC1(C)C[C@H]2C3=CC[C@@H]4[C@@]5(C)CC[C@H](O)[C@](C)(CO)[C@@H]5CC[C@@]4(C)[C@]3(C)CC[C@@]2(C)[C@H](O)[C@H]1O gave a Protection of 0%. CC(=O)O[C@H]1[C@@H](O)[C@]2(C)CC[C@]3(C)C(=CCC4[C@@]5(C)CC[C@H](O)[C@](C)(CO)C5CC[C@]43C)[C@@H]2CC1(C)C (stereo partly drawn) gave a Protection of 25%. Work on CC1(C)C[C@H]2C3=CCC4[C@@]5(C)CC[C@H](O)[C@](C)(CO)C5CC[C@@]4(C)[C@]3(C)CC[C@@]2(C)C(=O)[C@@H]1O (stereo partly drawn) yielded a Protection of 107%. Compound CC1(C)C[C@H]2C3=CC[C@@H]4[C@@]5(C)CC[C@H](O)[C@](C)(CO)[C@@H]5CC[C@@]4(C)[C@]3(C)CC[C@@]2(C)[C@@H](O)[C@H]1O has a Protection of 8%. In the case of CC1(C)C[C@H]2C3=CCC4[C@@]5(C)CC[C@H](O)[C@](C)(CO)C5CC[C@@]4(C)[C@]3(C)CC[C@@]2(C)C(=O)C1=O (stereo partly drawn), the Protection is reported as 131%. Compound CC(=O)OC[C@]1(C)C2CC[C@]3(C)C(CC=C4[C@@H]5CC(C)(C)[C@@H](O)[C@@H](O)[C@]5(C)CC[C@]43C)[C@@]2(C)CC[C@@H]1OC(C)=O (stereo partly drawn) has a Protection of 0%. CO[C@@H]1[C@H](O)C(C)(C)C[C@H]2C3=CCC4[C@@]5(C)CC[C@H](O)[C@](C)(CO)C5CC[C@@]4(C)[C@]3(C)CC[C@@]12C (stereo partly drawn) showed a Protection of 20%.

Each compound was assayed on HepG2 (assay: Hepatoprotective activity against aflatoxin B1 (10e-5 M) induced Hep G2 cells at a dose of 20 ug/ml).
Type: functional, Homo sapiens
CC1(C)[C@@H](O[C@H]2O[C@H](C(=O)O)[C@@H](O)[C@H](O)[C@H]2O[C@@H]2O[C@H](C(=O)O)[C@@H](O)[C@H](O)[C@H]2O)CC[C@]2(C)[C@H]3C(=O)C=C4[C@@H]5C[C@@](C)(C(=O)O)CC[C@]5(C)CC[C@@]4(C)[C@]3(C)CC[C@@H]12 [GLYCYRRHIZIN] showed a Protection of 15%.
